{"source": "patent US20160068843A1", "about": "(priority 2012, published 2016)", "tested_on": "H1N1 strain (A/California/07/09 (H1N1)pdm09)", "parameters": "species or system mice", "conditions": "mouse, in vivo"}
{"smiles": "CCOC(=O)C1=C[C@@H](OC(CC)CC)[C@H](NC(C)=O)[C@@H](N)C1", "note": "[Tamiflu]", "values": [{"measurement": "survival compared with siRNA combination", "value": "equivalent"}]}
